Entries after “also recorded” stand apart in the source; their conditions may differ. * marks the point of attachment. Boc = CC(C)(C)OC(=O)*
Legend:
rats subjected to MCAo [1] = experiment: Transient MCAo: MRI of lesion volume; type: in vivo; settings: rat, 2 h MCAo, Box5 IV 1 h later, day 7
Protocol: (§1) The right MCA can be occluded for 2 h by intraluminal filament, as described previously (Belayev et al. 2011). Briefly, the right common carotid artery (CCA) and external carotid artery (ECA) can be exposed through midline neck incision, and then completely isolated from the surrounding nerves. The occipital branches of the ECA and pterygopalatine artery can be ligated. A 4-cm of 3-0 nylon filament, coated with poly-L-lysine can be advanced to the origin of MCA through the proximal ECA via internal carotid artery. The filament can be inserted 20 to 22 mm from the bifurcation of the CCA, according to the animal's body weight. The neck incision can then be closed, and the rats can be returned to their cages. After about 2 h of MCAo, the rats can be re-anesthetized with the same anesthetic combination and the intraluminal filament can be gently removed. […]
In embodiments, high-resolution ex vivo magnetic resonance imaging (MRI) is performed on 4% paraformaldehyde-fixed brains at each time point (days 1, 3 and 7) using an 11.7T Bruker Advance 8.9 cm horizontal bore instrument equipped with an 89 mm (ID) receiver coil (Bruker Biospin, Billerica, Mass., USA). T2-weighted images (T2WI), diffusion weighted images (DWI), 3D volumes and apparent diffusion coefficient (ADC) maps can be collected and analyzed as previously described and known in the art (Obenaus et al. 2011). […]

rats subjected to MCAo [2] = experiment: Transient middle cerebral artery occlusion (MCAo): behavioral tests, neurological score; type: in vivo, rat; settings: for neuronal damage / neuroprotection in stroke model (tissue and behavioral): rat MCAo, summary statements
Description: In certain embodiments, Male Sprague-Dawley rats (290-320 g; Charles River Lab, Wilmington, Mass., USA) are used for in vivo studies. For all surgical procedures, animals can be fasted and anesthesia can be induced with 3.5% isoflurane and 70% nitrous oxide and 30% oxygen. Animals can be orotracheally intubated; given atropine for secretions, pancuronium for immobilization; ventilated mechanically on a humidified mixture of 70% nitrous oxide, 1.0-1.5% isoflurane and a balance of oxygen. A femoral artery and vein can be catheterized for continuous blood pressure monitoring and periodic blood sampling for arterial gases and pH. PCO2 can be maintained at 35-40 mm Hg and P02 at 105-120 mm Hg by ventilator adjustments. Rectal temperature can be measured with a thermistor and maintained with a heating lamp at 37.0-37.5° C. Cranial (temporalis muscle) temperature also can be monitored and regulated with a separate warming lamp at 36.2-36.7° C.
as §1, with “cages.” for “cages. After about 2 h of MCAo, the rats can be re-anesthetized with the same anesthetic combination and the intraluminal filament can be gently removed.”
In certain embodiments, behavioral tests are conducted before, during MCAo (at 60 min), and then at 24 h, 48 h, 72 h, or 7 days after MCAo by an investigator blinded to the experimental groups. […] In embodiments, the severity of stroke injury is assessed by behavioral examination of each rat at 60 min after onset of MCAo. […]

t-Boc-NH-Met-Asp-Gly-Cys-Glu-Leu-CO2H (Boc-MDGCEL-OH) [Box5]
MRI lesion (infarct) volume (rats subjected to MCAo [1]): steep decreased in the infarcted volume; also recorded: resembling DHA treatment; also recorded: reduces stroke size; also recorded: decreased volume of brain damage | neuronal damage / neuroprotection in stroke model (tissue and behavioral) (rats subjected to MCAo [2]): significantly decreased; also recorded: beneficious at the behavioral level as well as in the reduction of stroke damage; also recorded: protection at the neurological/behavioral level as well as by reduction of stroke damage | neuronal damage / neuroprotection in stroke model (tissue and behavioral) (rats subjected to MCAo [2]; listed as BOX5): remarkable neuroprotection | neurological score (total, tactile and proprioceptive placing) (rats subjected to MCAo [2]; rat, 2 h MCAo, IV 1 h later, DHA 5 mg/kg or Box5 (1 mg/kg; 400 μg), days 1, 2, 3, 7, versus saline): remarkable similarity to that obtained by DHA treatment; also recorded: improvement in neurological score; also recorded: resembling DHA treatment; also recorded: neurological protection remarkable similar to that obtained by DHA treatment
